Assay type in all cases: cell-based, human
The test system of data set [1] is aldehyde dehydrogenase (ALDH). As to the kind of experiment: Aldefluor assay with flow cytometry. The settings on record: OVCAR4 cells, adherent and suspended, 7 days; negative control. An excerpt: The panels of FIG. 9A and FIG. 9B are as follows. Panel A: CBX2-associated genes were cross-referenced with a gene set for stemness. Percentage indicates overlap of stemness gene set with CBX2-associated genes. Panel B: OVCAR4 cells grown in adherent and suspended settings for 7 days. Aldefluor assay and flow cytometry were utilized to determine the percentage of cells that were positive for aldehyde dehydrogenase (ALDH), a marker of stemness. […] Panel C: As above, OVCAR4 cells grown in adherent and suspended settings for 7 days. Bar graph compares the percentage of cells ALDH positive control (+DEAB) to cells without DEAB (experimental) in adherent and suspended settings. Statistical test=two-sided t-test. F Test p=0.1136. Panel D: OVCAR4 cells with shControl, shCBX2 #1 and #2 cultured in suspension over 7 days. Aldefluor assay and flow cytometry again utilized to determine the percentage of cells ALDH positive. Statistical test=two-sided t-test. F-test p=0.83 Panel E: Utilizing the TCGA (HGSOC, Nature, 2011, n=489) dataset, a scatter plot CBX2 expression was correlated to ALDH3A1 expression. Spearman correlation r=0.2123 and p-value<0.0001. Panel F: RT-qPCR of ALDH3A1 in OVCAR4 cells cultured in adherent and suspension conditions with CBX2 knockdown (shCBX2 #1). Statistical test =ANOVA. […]
For orientation: In flow cytometry, cells or beads pass a laser one at a time.

In data set [2] the test system is TMEFF1 expression in OVCAR4 cells. Description: TMEFF1 (CBX2 target gene) expression by qPCR. The settings on record: qPCR after treatment of OVCAR4 cells. How it is done: Ten candidate inhibitors were evaluated based on their ability to inhibit HGSOC cell viability. Dose response assays of all 10 inhibitors were conducted in OVCAR4, PEO1, and COV504 HGSOC cell lines to determine half inhibitory concentration (IC50) (FIG. 12 Panel A). We explored ability of these compounds to downregulate a CBX2 target gene, transmembrane protein with EGF-like and two follistatine-like domains 1 (TMEFF1) (FIG. 12 Panel B).
RNA was isolated using RNAeasy Plus Mini Kit (Qiagen, Hilden Germany) according to the manufacturer's protocol. NanoDrop spectrophotometry was used to measure concentration of extracted RNA. Luna Universal One-step RT qPCR kit (New England BioLabs, Ipswich, MA) was used on BioRad CFX96 (Bio-Rad, Hercules, CA). HPRT or GAPDH were used as internal control as stated in figure legend.
For orientation: Quantitative PCR measures a nucleic acid by following its amplification.

The subject of a further data set is CBX2. Description: CBX2 knockdown confirmed via qPCR and immunoblots. The conditions noted are these: shRNA transduced into OVCAR4, PEO1 and OVCAR8 cells; vs shControl. From the text:
To further elucidate the role of CBX2 in HGSOC, we evaluated the impact of CBX2 modulation in PEO1, OVCAR4, and OVCAR8 HGSOC cell lines. One of the two independent small hairpin RNAs (shRNA) specific for CBX2 or a control (shControl) were transduced into OVCAR4, PEO1, and OVCAR8 cells. CBX2 knockdown was confirmed via quantitative PCR (qPCR) and immunoblots, with approximately 60% knockdown in the presence of shCBX2 #1 and 30% knockdown in the presence of shCBX2 #2 (FIG. 2A Panels C, D; and FIG. 3A Panels B-D). […] OVCAR4 and PEO1 CBX2 knockdown cells were plated in adherent (2D) conditions and for 96 h gLuc activity was measured every 24 h. […] OVCAR4 and PEO1 CBX2 knockdown cells were plated in forced suspension conditions and gLuc activity was monitored every 24 h for 96 h and cell viability was determined for cells grown in forced suspension. […] Spheroid diameter was measured for at least 50 spheroids in each condition and used as a surrogate for cell number. […]
Cell lysis was performed using radioimmunoprecipitation assay (RIPA) buffer (150 mM sodium chloride, Triton X-100, 0.5% sodium deoxycholate, 0.1% SDS [sodium dodecyl sulfate], 50 mM Tris, pH 8.0) supplemented with complete EDTA-free protease inhibitor cocktail (Roche), as well as NaF and NaV. Protein was quantified using bicinchoninic acid (BCA) protein assay (Thermo Fisher Scientific, Waltham, MA) and spectrophotometry. […]

`CCN(CC)c1ccc(C=O)cc1` [DEAB, Diethylaminobenzaldehyde]: in data set [1], the ALDH activity entry is recorded as “prevented the increase”.

`CC(=O)Nc1ccc(OC[C@](C)(O)C(=O)Nc2ccc([N+](=O)[O-])c(C(F)(F)F)c2)cc1` [GTX-007]: the TMEFF1 expression result in data set [2] is “significantly inhibited”.

In the case of `CCc1c(C(=O)C(N)=O)c2c(OCC(=O)O)cccc2n1Cc1ccccc1` [LY315920], in data set [2], the TMEFF1 expression entry was “significantly inhibited”.

As to `Cc1nc2ccc(CN(C)c3ccc(C(=O)N[C@@H](CCC(=O)O)C(=O)O)s3)cc2c(=O)[nH]1` [raltitrexed], the TMEFF1 expression result in data set [2] is listed as “significantly inhibited”.

“shCBX2 #1: CBX2-specific short hairpin RNA, GCCAAGGAAGCTCACTGCCAT (SEQ ID NO:19) (expressed or natural sequence; listed as Homo sapiens)”: the CBX2 knockdown result with CBX2 is “approximately 60%”.

For the compound “shCBX2 #2: CBX2-specific short hairpin RNA, ACGGAAAGGAACAGGAAGCAT (SEQ ID NO:20) (expressed or natural sequence; listed as Homo sapiens)”, the CBX2 knockdown in the data set on CBX2 is ~30%.
